Test results published in patent US8580517B2, “Biosensor and use thereof to identify therapeutic drug molecules and molecules binding orphan receptors” (priority 2003, dated 2013).
Entries after “also recorded” stand apart in the source; their conditions may differ.

Key:
Assay type in all cases: cell-based
[1] = target: T1, M2 muscarinic acetylcholine receptors (Homo sapiens, UniProt P08172); test: G protein biosensor FRET (CY/CC) imaging in CHO cells stably expressing M2 receptor; details: for FRET signal intensity on addition of the molecule: 100 μM, α-CFP/β-YFPγ biosensor; for FRET signal intensity on repeated addition of agonist and antagonist: Go biosensor, same cell, repeated additions; for CC emission intensity / CY emission intensity: carbachol 100 μM, then atropine 100 μM
T1 construct: expressed in transfected cells
T1 sequence (P08172 1-466): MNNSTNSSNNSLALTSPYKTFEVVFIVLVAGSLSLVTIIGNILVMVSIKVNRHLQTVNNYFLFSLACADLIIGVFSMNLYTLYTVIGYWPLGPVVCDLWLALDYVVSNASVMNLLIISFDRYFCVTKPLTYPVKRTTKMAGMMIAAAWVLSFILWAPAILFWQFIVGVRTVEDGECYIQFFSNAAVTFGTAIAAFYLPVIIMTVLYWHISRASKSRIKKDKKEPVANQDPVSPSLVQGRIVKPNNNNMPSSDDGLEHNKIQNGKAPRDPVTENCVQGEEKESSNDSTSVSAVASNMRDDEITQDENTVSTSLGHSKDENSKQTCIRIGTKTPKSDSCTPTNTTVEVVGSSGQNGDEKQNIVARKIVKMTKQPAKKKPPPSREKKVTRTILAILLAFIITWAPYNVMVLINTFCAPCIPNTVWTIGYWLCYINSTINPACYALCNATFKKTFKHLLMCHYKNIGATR
Experimental: All were transferred to pDEST12.2 mammalian expression vectors following the manufacturer's instructions (Invitrogen). […] Competent CHO cells expressing M2 were competently transfected with three pDEST12.2 carrying αo-CFP, β1-YFP and γ5. Stable transfectants were selected with G418 and coexpressors were isolated by flow cytometry and confirmed by differential fluorescence microscopy.
(§1) Microscopy, image acquisition and FRET analysis (i.e. image capture, recording and analysis) were carried out as follows (generally following the illustration in FIG. 3). Cells were seeded on glass coverslips (25 mm #1 from Warner Instruments) in 35 mm dishes and cultured overnight for imaging. Coverslips containing cells were mounted in a perfusion chamber of 0.36 ml internal volume (RC-21BR from Warner Instrument Corporation, 1141 Dixwell Ave., Hamden, Conn. 06514) containing Hank's Buffered Saline Solution (HBSS) supplemented with 10 mM Hepes pH 7.4 and 1 mg glucose/ml. The perfusion chamber was stage-mounted in an upright Zeiss Axioscope fluorescence microscope.
(§2) Agonists, antagonists or a molecule in the HBSS solution were injected manually (or using an automated valve based system driven pneumatically or by gravity) at a rate of about 2 ml/min for 45 seconds through a secondary inlet of the chamber. Images were acquired at the indicated times. Cells were illuminated with a 50 W mercury lamp (or a 100 W mercury lamp) through a 20% neutral density filter. The filter wheels were run by a Sutter Lambda 10-2 device, a high speed excitation filter wheel that utilizes a direct stepper motor. (Sutter Instrument Company, 51 Digital Drive, Novato, Calif. 94949). In an aspect, power to operate instruments such as the microscope, pumps, motor(s), camera(s), computer(s) control system is supplied by 110 volt electric which is supplied to the instruments and turned on at the startup.
Filters were used in combination with appropriate beam splitters in the filter cube. For CC (cyan) images: D436/20 excitation (x), D480/40 emission (m) and 455DCLP beam splitter; for CY (FRET) images: D436/20x, D535/30m and 455DCLP beam splitter; for YY (yellow) images: the filters D500/20x, D535/30m and 515LP beam splitter. All filters were from Chroma. Images were acquired using a Hamamatsu CCD Orca-ER Camera with 4×4 binning. Exposure times were 1 sec for each CC or CY image. Images were acquired and captured of the FRET signal every 15 sec for a total of 4 or 6 minutes and stored as 12-bit gray scale image-stacks using MetaVue/Metamorph software (Universal Imaging Corporation, 402 Boot Road, Downington, Pa. 19335). Both camera and filter wheels were controlled peripherally using MetaVue from a Dell Computer Workstation (Dell Computer, Houston, Tex.) Images were processed using Metamorph (Universal Imaging) in a Dell Computer Workstation. […] Average intensities in these regions were measured. Maximum intensity per pixel in selected regions were ensured to be lower than the maximum value on the available 12-bit gray scale (4095). Ratios of the CY over CC intensities from these regions were plotted to obtain the FRET profiles.
Agonist concentration dependence of the decrease in the FRET signal: Images (emission spectra) of live functional biosensor cells were captured and recorded as above for about six minutes. […] The regression lines were drawn using GraphPad (Prizm). The percentage of activation by submaximal doses was determined by the formula 100(Rx−Ro)/(Rm−Ro). Rx, Ro and Rm are the numerical values of the respective regression lines at the 210 second elapsed time point where Ro was the initial baseline, Rx was the submaximal response and Rm was the maximal response.

[2] = system: human adenosine receptors; test: G protein biosensor FRET profile in biosensor cells expressing adenosine receptor; details: 50 μM
Experimental: as §1
as §2, with “(Sutter Instrument Company, 51 Digital Drive, Novato, Calif. 94949). In an aspect, power to operate instruments such as the microscope, pumps, motor(s), camera(s), computer(s) control system is supplied by 110 volt electric which is supplied to the instruments and turned on at the startup.” left out
(§3) Filters were used in combination with appropriate beam splitters in the filter cube. […] Average intensities in these regions were measured. […]

[3] = target: T1, M2 muscarinic acetylcholine receptors; test: G protein biosensor FRET (CY/CC) imaging in CHO cells stably expressing M2 receptor; details: biosensor with CFP tagged α, YFP tagged γ, untagged β subunit
[4] = target: T2, human serotonin receptors (Type 1A) (Homo sapiens, UniProt P08908); test: G protein biosensor FRET profile in biosensor cells expressing serotonin receptors
T2 construct: expressed in transfected cells; host or cells: Biosensor cells
T2 sequence (P08908 1-422): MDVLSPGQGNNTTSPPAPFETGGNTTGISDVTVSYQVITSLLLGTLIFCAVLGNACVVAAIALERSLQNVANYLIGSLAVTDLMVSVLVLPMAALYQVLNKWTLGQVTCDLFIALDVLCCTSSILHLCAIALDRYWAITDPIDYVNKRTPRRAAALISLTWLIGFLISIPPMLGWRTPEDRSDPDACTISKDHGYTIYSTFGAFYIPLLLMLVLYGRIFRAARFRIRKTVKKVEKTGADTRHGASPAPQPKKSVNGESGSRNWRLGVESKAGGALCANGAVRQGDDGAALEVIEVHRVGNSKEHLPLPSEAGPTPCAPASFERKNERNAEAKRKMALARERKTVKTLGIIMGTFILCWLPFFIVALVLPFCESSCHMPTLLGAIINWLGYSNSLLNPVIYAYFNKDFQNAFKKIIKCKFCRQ
Experimental: as §1
as §2, with “(Sutter Instrument Company, 51 Digital Drive, Novato, Calif. 94949). In an aspect, power to operate instruments such as the microscope, pumps, motor(s), camera(s), computer(s) control system is supplied by 110 volt electric which is supplied to the instruments and turned on at the startup.” left out
as §3

Structure (SMILES)	FRET signal intensity on addition of the molecule [1]	FRET signal intensity on repeated addition of agonist and antagonist [1]	CC emission intensity [1]	CY emission intensity [1]	further results
CC(C)NCC(O)c1ccc(O)c(O)c1 (centres unmarked) [Isoproterenol, isoproterenol]	no effect on FRET signal intensity	–	–	–	–
OC[C@H]1O[C@@H](n2cnc3c(NC4CCCCC4)ncnc32)[C@H](O)[C@@H]1O [adenosine N6-Cyclohexyl]	–	–	–	–	FRET signal intensity on addition of agonist [2]: decreased the FRET signal intensity significantly
CN1[C@@H]2CC[C@H]1C[C@@H](OC(=O)C(CO)c1ccccc1)C2 (some centres unmarked) [atropine]	–	increases	CC emission intensity decreases	increases	carbachol-induced loss of FRET after pretreatment with antagonist ([1]; atropine 10 μM present, carbachol 100 μM added): no longer elicited the loss of FRET; FRET signal intensity on addition of antagonist after agonist ([1]; atropine 100 μM after carbachol 100 μM): FRET signal intensity increases strikingly
C[N+](C)(C)CCOC(N)=O [carbachol]	reduced FRET signal intensity; also recorded: FRET signal intensity decreases	decreases	CC emission intensity increases	CY emission intensity decreases	FRET signal intensity on addition of agonist [3]: decrease in FRET signal intensity
CC(C)(C)NCC(O)COc1cccc2[nH]c(C#N)cc12 (centres unmarked) [cyanopindolol]	–	–	–	–	FRET signal intensity on addition of antagonist after agonist ([4]; cyanopindolol 150 μM after serotonin 20 μM): increase in the FRET signal intensity
NCCc1c[nH]c2ccc(O)cc12 [serotonin]	–	–	–	–	FRET signal intensity on addition of agonist ([4]; 20 μM): decreased the FRET signal intensity significantly; also recorded: decrease in the FRET signal intensity
